For assay [1], the system named is platelets. Briefly: Analysis of phosphatidylserine (PS) exposure by FACS (AnnexinV-FITC). The format is cell-based, human. The procedure:
PS exposure was measured by FACS analysis of bound AnnexinV-FITC using 488 nm for excitation and 530 nm for emission. (Shapira S, Friedman Z et al., “The effect of storage on the expression of platelet membrane phosphatidylserine and the subsequent impact on the coagulant function of stored platelets”, Transfusion 2000, 40:1257-1263)

Assay [2] has as its system platelets. The experiment in a line: ATP quantitation in stored platelets (luminometric ATP bioluminescence kit). The format is cell-based, human. The procedure: PC fractions were identically prepared from CO pretreated or untreated blood by consecutive centrifugation in a sterile environment using blood bank conditions. Bicarbonate (4% of PC volume) was then added from a stock solution of 750 mM with agitation to yield a final bicarbonate concentration of 30 mM. Next, the PC was treated with CO in a similar manner to whole blood. Alternatively, rather than applying a vacuum, the containers were flushed for 10 min. with sterile CO while agitating the containers, which were then sealed. The containers were allowed to stay at room temperature of 20-24 degree C.° PRP platelets were treated similarly.
A luminometric ATP was measured by Veritas™ Microplate Luminometer (Tuner Biosystems) by using an ATP bioluminescence kit (CLS II) from Roche (cat No. 11 699 709 001) Mannheim Germany The assay was performed according to the manufacturer's instructions. Briefly: 50 μl of cell lysate (500000 cell per sample) or ATP standard concentration was added in advance to each well in 96 well LIA-white plate (Greiner bio one). Automatic injection of 50 μof substrate solution (luciferin and luciferase) was added to each well by the device and the luminescence was measured. ATP concentrations were calculated based on an ATP standard curve. Each sample was tested in triplicate.

Assay [3] relates to human platelets in rabbit blood circulation. The experiment in a line: In vivo platelets viability analysis in a rabbit model. The procedure:
Female New Zealand white rabbits (2.5-3 kg) were infused with Ethyl Palmytate (EP) to inhibit the Macrophages function (Blajchman M A and Lee D H, “The thrombocytopenic rabbit bleeding time model to evaluate the in vivo hemostatic efficacy of platelets and platelet substitutes”, Transfus Med Rev 1997, 11:95-105). EP solution (10 ml) was prepared by mixing (up to homogeneity) of 2.25 ml EP with 7.75 ml of 5% dextrose containing 1% Tween-20.
[…] Blood samples at time intervals were analyzed by flow cytometry with FITC labeled anti-CD42a for the presence of human platelets (Rothwell S W, Maglasang P et al., “Survival of fresh human platelets in a rabbit model as traced by flow cytometry”, Transfusion 1998, 38:550-556; Leytin V, Allen D J et al., “A rabbit model for monitoring in vivo viability of human platelet concentrates using flow cytometry”, Transfusion 2002, 42:711-718). 100% represented the total number of normalized human platelet in rabbit circulation after 30 min from the injection.

One compound from patent US20200337297A1, “SYSTEM AND METHOD FOR CARBON MONOXIDE […] BLOOD COMPONENTS” (SAFETIN LTD., priority 2017, published 2020) can be followed below.

For `[C-]#[O+]` [COatm, carbon monoxide], in assay [1] (9 days COatm-stored, then re-aerated (FIG. 6d)), the “PS exposure after transfer to air” value is on record as “another fraction returned to very low PS exposure”. The “PS exposure, change during extended storage” value in assay [1] (extended storage under COatm up to 9 days) is on record as “no further changes”. Besides, the PS exposure result in assay [1] (several hours of storage under COatm (FIG. 6b)) is given as “most cells are PS-exposed”. The “ATP level relative to the initial value of the ATP of air preserved platelets” value in assay [2] (5 days COatm storage, then overnight re-aeration) is on record as 74%. The “ATP level relative to the level in fresh PC” value in assay [2] (platelets stored as PC 5 days under anaerobic COatm) was determined as 28%. Moreover, the “time dependent survival of stored human platelets in rabbit blood circulation” value in assay [3] (7 days stored, COatm vs air-stored (FIG. 5)) is “survive longer in vivo than air-stored platelets”. Moreover, the “survival of stored platelets in rabbit blood circulation” value in assay [3] (Plt preserved for 9 days, COatm vs air (FIG. 5)) was “survived for longer in blood circulation”.
